Patent US20210238225A1, “PEPTIDOMIMETIC INHIBITORS OF THE PEPTIDYL-PROLYL CIS/TRANS ISOMERASE (PIN1)” (DANA-FARBER CANCER INSTITUTE, INC., priority 2018, published 2021)
Non-standard residues stand in square brackets, D forms with d. Residues, ends and D or L forms follow the SMILES beside them. *: point of attachment. Phe(4-F) = N[C@@H](Cc1ccc(F)cc1)C(=O)O; 2Nal = N[C@@H](Cc1ccc2ccccc2c1)C(=O)O; NH(4-Me-benzyl) = Cc1ccc(CN*)cc1; NMeF = CN[C@@H](Cc1ccccc1)C(=O)O; Cit = NC(=O)NCCC[C@H](N)C(=O)O; Pip = O=C(O)[C@@H]1CCCCN1; Piperidide = C1CCN(*)CC1; X3 = C=CS(=O)(=O)*; ClAc = O=C(CCl)*; NHcPr = C1CC1N*

Columns and labels:
Pin1 [1] = biological target: T1, Pin1 (Homo sapiens, UniProt Q13526); test: Lysate target engagement (pull down with biotinylated probes; competition assay); format: binding; design: endogenous in cells; host or cells: MDA-MB-231; conditions: for Lysate Target Engagement?: TNBC-MDA-MB-231 lysate, biotin/dtb probes: pull down, others: competition, concentration under E5; for Lysate Target Engagement? concentration stated for the engagement or pull down: read with the E4 line of the same compound (complete, partial, probe pull down)
Method: (§1) TNBC-MDA-MB-231 cells were lysed in lysis buffer (50 mM Hepes pH 7.5, 150 mM NaCl, 1 mM ethylenediaminetetraacetic acid (EDTA), 10% v/v glycerol, 0.5% v/v NP-40, protease inhibitors (Roche)). After clarifying by centrifugation (14,000 rpm for 15 min at 4° C.), lysates were incubated with the indicated concentrations of candidate compound for 1 hour at 4° C. (500 μg of protein per sample, as determined by BCA). Lysates were then incubated with streptavidin agarose resin (30 μL of 1:1 beads: lysis buffer slurry) (Thermo Scientific™, cat. #20349) for 2 hours at 4° C. Beads were washed 4 times with 500 μL of washing buffer (50 mM Hepes, pH 7.5, 10 mM NaCl, 1 mM EDTA, 10% glycerol), then pelleted by centrifugation and dried. The beads were then boiled at 95° C. for 5 minutes in 30 μL of 2× LDS+10% β-mercaptoethanol. Lysates were probed for specified proteins by western blotting using the Bolt system (Life Technologies™).
as §1, with “mM EDTA,” for “mM ethylenediaminetetraacetic acid (EDTA),”, “by centrifugation,” for “by centrifugation (14,000 rpm for 15 min at 4° C.),”, “were pre-incubated” for “were incubated”, “of” for “of candidate”, “compound 18 overnight” for “compound for 1 hour”, “BCA). The lysates were then incubated with 1 μM of compound 2c (desthiobiotin probe) for 1 hour at 4° C.” for “BCA).”

Pin1 [2] = biological target: T1, Pin1; test: Cellular target engagement, live cell biotin competition assay in TNBC MDA-MB-231 cells; format: cell-based; design: endogenous in cells; host or cells: MDA-MB-231; conditions: TNBC MDA-MB-231 cells; for Cellular Target Engagement?: 5 hours treatment, concentration under E7
Method: TNBC MDA-MB-231 cells were plated in 10 cm plates with 2.5 million cells per plate in 6 mL of media. The day after plating, cells were treated with the indicated concentrations of compound 18 for 5 hours. The cells were washed 2× with 0.9% NaCl (1 mL per 10 cm plate), and collected by scraping with a cell scraper. Cells were lysed in lysis buffer (50 mM Hepes pH 7.5, 150 mM NaCl, 1 mM EDTA, 10% v/v glycerol, 0.5% v/v […], protease inhibitors (Roche)) using 210 μL of cell lysis buffer per 10 cm plate of cells. After clarifying by centrifugation (14,000 rpm for 15 min at 4° C.), 5 μL of each lysate sample was combined with 5 μL of 2× LDS+10% β-mercaptoethanol, boiled for 5 minutes, and set aside for the input loading control (later to be loaded directly in the gel). Then, 200 μL of each lysate was then incubated with 1 μM of compound 2-32 (biotin probe compound) for 1 hour at 4° C. Lysates were then incubated with streptavidin agarose resin (30 μL of 1:1 beads: lysis buffer slurry) (Thermo Scientific™, cat. #20349) for 2 hours at 4° C. Beads were washed 4 times with 500 μL of washing buffer (50 mM Hepes, pH7.5, 10 mM NaCl, 1 mM EDTA, 10% glycerol), then pelleted by centrifugation and dried. The beads were then boiled at 95° C. for 5 minutes in 30 μL of 2× LDS+10% β-mercaptoethanol. Lysates were probed for specified proteins by western blotting using the Bolt system (Life Technologies™).

Pin1 (GST-Pin1) = Pin1 (GST-Pin1) (Homo sapiens, UniProt Q13526); test: Fluorescence polarization (FP) assay, binding to Pin1; conditions: competition with fluorescein-labeled peptide probe; 12 hours pre-incubation at 4° C.; Kenakin Ki equation; read-out: Ki, μM (FP Assay)
Pin1 Cys 113 = Pin1 Cys 113 (Homo sapiens, UniProt Q13526); test: Covalent labeling (intact MS); format: binding; conditions: purified Pin1 with 5 μM inhibitor, 0-3 hr
Method: 5 μg of purified Pin1 protein in 50 μL of 20 mM HEPES pH 7.5 and 75 mM NaCl was incubated with 5 μM of respective Pin1 inhibitors for 0-3 hr. A Shimadzu XR HPLC was used to inject the entire sample onto a self-packed reverse-phase column (1/32 in outer diameter×500 μm inner diameter, 5 cm of POROS 50R2 resin). After desalting, protein was eluted with an HPLC gradient (0%-100% B in 4 min, A=0.2 M acetic acid in water, B=0.2 M acetic acid in acetonitrile, flow rate=10 μl/min) into a LTQ XL mass spectrometer (Thermo Fisher Scientific, San Jose, Calif., USA). LTQ XL MS spectra were acquired in centroid mode using the electron multipliers for ion detection. Mass spectra were deconvoluted using MagTran1.03b2 software (Zhang and Marshall, J. Am. Soc. Mass Spectrom. 9:225-233 (1998)).

T1 sequence (Q13526 whole entry): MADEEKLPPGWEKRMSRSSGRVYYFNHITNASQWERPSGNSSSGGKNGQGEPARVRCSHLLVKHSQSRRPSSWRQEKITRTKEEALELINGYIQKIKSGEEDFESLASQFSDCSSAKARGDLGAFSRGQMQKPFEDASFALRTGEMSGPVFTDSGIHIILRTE
Chain of Pin1 (GST-Pin1) (Q13526 whole entry): as above
Chain of Pin1 Cys 113 (Q13526 whole entry): as above

COC(=O)CC[C@H](NC(=O)CCl)C(=O)N1CCCC[C@H]1C(=O)N[C@@H](Cc1ccc2ccccc2c1)C(=O)N[C@@H](CCCNC(N)=O)C(N)=O [Compound 2-11, Methyl (S)-5-((S)-2-(((S)-1-(((S)-1-amino-1-oxo-5-ureidopentan-2-yl)amino)-3-(naphthalen-2-yl)-1-oxopropan-2-yl)carbamoyl)piperidin-1-yl)-4-(2-chloroacetamido)-5-oxopentanoate] (ClAc-E(OMe)[Pip][2Nal][Cit]-NH2)
Lysate Target Engagement? (Pin1 [1]): Yes-complete | Lysate Target Engagement? concentration stated for the engagement or pull down (Pin1 [1]): by 10 μM | Cellular Target Engagement? (Pin1 [2]): No | Ki (Pin1 (GST-Pin1)): 0.06 µM

NC(=O)[C@H](Cc1ccc(F)cc1)NC(=O)[C@H](Cc1c[nH]c2ccccc12)NC(=O)[C@@H]1CCCCN1C(=O)[C@H](CCC(=O)O)NC(=O)CCl [Compound 2-27, (S)-5-((S)-2-(((S)-1-(((S)-1-Amino-3-(4-fluorophenyl)-1-oxopropan-2-yl)amino)-3-(1H-indol-3-yl)-1-oxopropan-2-yl)carbamoyl)piperidin-1-yl)-4-(2-chloroacetamido)-5-oxopentanoic acid] (ClAc-E[Pip]W[Phe(4-F)]-NH2)
Lysate Target Engagement? (Pin1 [1]): Yes-partial | Lysate Target Engagement? concentration stated for the engagement or pull down (Pin1 [1]): at 10 μM | Cellular Target Engagement? (Pin1 [2]): No | Ki (Pin1 (GST-Pin1)): 0.075 µM

NC(=O)NCCC[C@H](NC(=O)[C@H](Cc1c[nH]c2ccccc12)NC(=O)[C@@H]1CCCCN1C(=O)[C@H](CCC(=O)O)NC(=O)CCl)C(N)=O [Compound 2b-18, (S)-5-((S)-2-(((S)-1-(((S)-1-Amino-1-oxo-5-ureidopentan-2-yl)amino)-3-(1H-indol-3-yl)-1-oxopropan-2-yl)carbamoyl)piperidin-1-yl)-4-(2-chloroacetamido)-5-oxopentanoic acid] (ClAc-E[Pip]W[Cit]-NH2)
Lysate Target Engagement? (Pin1 [1]): Yes-Complete | Lysate Target Engagement? concentration stated for the engagement or pull down (Pin1 [1]): at 5 μM | Cellular Target Engagement? (Pin1 [2]): No

C=CS(=O)(=O)N[C@@H](CCC(=O)O)C(=O)N1CCCC[C@H]1C(=O)N[C@@H](Cc1ccc2ccccc2c1)C(=O)N[C@@H](CCCNC(N)=O)C(N)=O [Compound 4, (S)-5-((S)-2-(((S)-1-(((S)-1-Amino-1-oxo-5-ureidopentan-2-yl)amino)-3-(naphthalen-2-yl)-1-oxopropan-2-yl)carbamoyl)piperidin-1-yl)-5-oxo-4(vinylsulfonamido)pentanoic acid] (X3-E[Pip][2Nal][Cit]-NH2)
Lysate Target Engagement? (Pin1 [1]): No | Covalent? (In tact MS), % labeling (Pin1 Cys 113): Yes (93% | Ki (Pin1 (GST-Pin1)): 0.35 µM

COC(=O)CC[C@H](NC(=O)CCl)C(=O)N1CCCC[C@H]1C(=O)N[C@@H](Cc1c[nH]c2ccccc12)C(=O)N[C@@H](Cc1ccc(O)cc1)C(=O)NCc1ccc(C)cc1 [Compound 11-1, Methyl (S)-4-(2-chloroacetamido)-5-((S)-2-(((S)-1-(((S)-3-(4-hydroxyphenyl)-1-((4-methyl-benzyl)amino)-1-oxopropan-2-yl)amino)-3-(1H-indol-3-yl)-1-oxopropan-2-yl)carbamoyl)piperidin-1-yl)-5-oxopentanoate]
Lysate Target Engagement? (Pin1 [1]): No | Cellular Target Engagement? (Pin1 [2]): No | Ki (Pin1 (GST-Pin1)): 0.176 µM

COC(=O)CC[C@H](NC(=O)CCl)C(=O)N1CCCC[C@H]1C(=O)N[C@@H](Cc1c[nH]c2ccccc12)C(=O)N[C@@H](Cc1c[nH]c2ccccc12)C(=O)NCc1ccc(C)cc1 [Compound 11-2, Methyl (S)-5-((S)-2-(((S)-1-(((S)-3-(1H-indol-3-yl)-1-((4-methylbenzyl)amino)-1-oxopropan-2-yl)amino)-3-(1H-indol-3-yl)-1-oxopropan-2-yl)carbamoyl)piperidin-1-yl)-4-(2-chloroacetamido)-5-oxopentanoate] (ClAc-E(OMe)[Pip]WW-{NH(4-Me-benzyl)})
Lysate Target Engagement? (Pin1 [1]): No | Cellular Target Engagement? (Pin1 [2]): No | Ki (Pin1 (GST-Pin1)): > 10 µM

Cc1ccc(CNC(=O)[C@H](CCCNC(N)=O)NC(=O)[C@H](Cc2c[nH]c3ccccc23)NC(=O)[C@@H]2CCCCN2C(=O)[C@H](Cc2ccccc2)NC(=O)CCl)cc1 [Compound 11-23, (S)—N—((S)-3-(1H-indol-3-yl)-1-(((S)-1-((4-methylbenzyl)amino)-1-oxo-5-ureidopentan-2-yl)amino)-1-oxopropan-2-yl)-1-((2-chloroacetyl)-L-phenylalanyl)piperidine-2-carboxamide] (ClAc-F[Pip]W[Cit]-{NH(4-Me-benzyl)})
Covalent? (In tact MS), % labeling (Pin1 Cys 113): Yes (100% | Cellular Target Engagement? (Pin1 [2]): Yes-Complete | Cellular Target Engagement? concentration stated for complete engagement (Pin1 [2]; read with the E6 line): at 10 μM | Ki (Pin1 (GST-Pin1)): 0.004 µM

NC(=O)NCCC[C@H](NC(=O)[C@H](Cc1c[nH]c2ccccc12)NC(=O)[C@@H]1CCCCN1C(=O)[C@H](Cc1ccccc1)NC(=O)CCl)C(=O)NC1CC1 [Compound 11-38, (S)-1-((2-chloroacetyl)-L-phenylalanyl)-N—((S)-1-(((S)-1-(cyclopropylamino)-1-oxo-5-ureidopentan-2-yl)amino)-3-(1H-indol-3-yl)-1-oxopropan-2-yl)piperidine-2-carboxamide] (ClAc-F[Pip]W[Cit]-NHcPr)
Cellular Target Engagement? (Pin1 [2]): No | Ki (Pin1 (GST-Pin1)): 0.018 µM

NC(=O)NCCC[C@H](NC(=O)[C@H](Cc1c[nH]c2ccccc12)NC(=O)[C@@H]1CCCCN1C(=O)[C@H](Cc1ccccc1)NC(=O)CCl)C(=O)N1CCCCC1 [Compound 11-39, (S)—N—((S)-3-(1H-indol-3-yl)-1-oxo-1-(((S)-1-oxo-1-(piperidin-1-yl)-5-ureidopentan-2-yl)amino)propan-2-yl)-1-((2-chloroacetyl)-L-phenylalanyl)piperidine-2-carboxamide] (ClAc-F[Pip]W[Cit]-Piperidide)
Cellular Target Engagement? (Pin1 [2]): No | Ki (Pin1 (GST-Pin1)): 0.017 µM

CCOC(=O)[C@H](CCCNC(N)=O)NC(=O)[C@H](Cc1c[nH]c2ccccc12)NC(=O)[C@@H]1CCCCN1C(=O)[C@H](Cc1ccccc1)N(C)C(C)=O [Compound 18-1, Ethyl (S)-2-((S)-2-((S)-1-(N-acetyl-N-methyl-L-phenylalanyl)piperidine-2-carboxamido)-3-(1H-indol-3-yl)propanamido)-5-ureidopentanoate] (Ac-[NMeF][Pip]W[Cit]-OEt)
Cellular Target Engagement? (Pin1 [2]): No | Ki (Pin1 (GST-Pin1)): 1.9 µM
